Data reported in ChEMBL document CHEMBL1201862, “PubChem BioAssay data set” (2004).
The source made the active and inactive calls.

Key:
[1] = molecular target: DNA dC->dU-editing enzyme APOBEC-3A (Homo sapiens, UniProt P31941); assay: APOBEC3A DNA deaminase inhibitors, dose response, biochemical (AID 504722); type: functional
[2] = molecular target: Glucose-6-phosphate 1-dehydrogenase (Homo sapiens, UniProt P11413); assay: human G6PD enzyme inhibitors, dose response, selectivity assay for P. falciparum G6PD inhibitor project, biochemical, fluorescence (AID 504792); type: functional
[3] = molecular target: DNA dC->dU-editing enzyme APOBEC-3G (Homo sapiens, UniProt Q9HC16); assay: Dose Response confirmation of small molecule APOBEC3G DNA Deaminase Inhibitors via a fluorescence-based single-stranded DNA deaminase assay. [Related pubchem assays (depositor defined):AID493012, AID493028]; type: functional
[4] = molecular target: Lysine-specific demethylase 4C (Homo sapiens, UniProt Q9H3R0); assay: GASC-1 (JMJD2C) histone demethylase inhibitors, dose response, biochemical, DELFIA europium, cherry-picked samples (AID 488835); type: functional
[5] = test system: Streptococcus sp. 'group A'; assay: growth inhibition of control SK(-) GAS strain, dose response, counter-screen for streptokinase expression inhibitor project, luminescence, kanamycin, BacTiterGlo, confirmation (AID 1900); type: functional, organism-based
Streptokinase A = molecular target: T1, Streptokinase A (Streptococcus pyogenes serotype M1, UniProt P10520); assay: S. pyogenes streptokinase expression inhibitors, potency, dose response, plasminogen activation absorbance, OD405 (AID 1914); type: functional, Streptococcus pyogenes M1 GAS;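 note: secreted streptokinase activity via plasminogen activation per viability signal from cell pellet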
T1 sequence (P10520 whole entry): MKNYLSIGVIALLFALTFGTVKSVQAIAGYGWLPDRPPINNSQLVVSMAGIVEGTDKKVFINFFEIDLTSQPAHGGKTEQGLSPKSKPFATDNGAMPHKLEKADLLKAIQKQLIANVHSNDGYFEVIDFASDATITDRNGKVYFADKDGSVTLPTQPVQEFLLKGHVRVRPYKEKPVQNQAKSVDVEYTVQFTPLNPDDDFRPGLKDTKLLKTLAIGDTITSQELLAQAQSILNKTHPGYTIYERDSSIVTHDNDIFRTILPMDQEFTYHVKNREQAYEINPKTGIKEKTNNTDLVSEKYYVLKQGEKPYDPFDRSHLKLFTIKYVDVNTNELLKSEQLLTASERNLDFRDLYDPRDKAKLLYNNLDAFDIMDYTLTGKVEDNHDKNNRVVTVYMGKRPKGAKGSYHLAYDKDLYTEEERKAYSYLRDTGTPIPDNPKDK

[6] = inhibitors of intracellular T. cruzi replication, confirmation, NIH3T3 host cells, beta-gal luminescence (AID 2044); type: functional, cell-based;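 note: intracellular parasites grown in NIH/3T3 mouse fibroblasts as host cells; luminescent beta-galactosidase reporter signal from transgenic T. cruzi replicating inside host cells; inhibitors lower the luminescence signal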
[7] = molecular target: T2, Kappa-type opioid receptor (Homo sapiens, UniProt P41145); type: functional
[8] = cytotoxicity toward NIH3T3 fibroblasts, dose response, counter-screen, cell-based, ATP luminescence, mouse fibroblasts (AID 2010); type: functional;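 note: cells exposed to compound for about 90 hours before reading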
Beta-galactosidase = Beta-galactosidase (Escherichia coli, UniProt Q8VNN2); type: functional
[9] = molecular target: T2, Kappa-type opioid receptor; type: functional; remark: listed apart in the source
Streptococcus = assay: Group A Streptococcus viability loss, dose response, counter-screen for streptokinase expression inhibitor project, luminescence, BacTiterGlo (AID 1915); type: functional, organism-based;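 note: potency for reduction of bacterial viability or growth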
Mu-type opioid receptor [10] = molecular target: T3, Mu-type opioid receptor (Homo sapiens, UniProt P35372); assay: MOR agonists by imaging, SAR follow-up, image-based (AID 2352); type: functional
[11] = molecular target: T4, Delta-type opioid receptor (Homo sapiens, UniProt P41143); assay: DOR agonists, SAR follow-up, image-based (AID 2370); type: functional
[12] = molecular target: T2, Kappa-type opioid receptor; assay: KOR antagonists by imaging, SAR follow-up, image-based (AID 2348); type: functional
Mu-type opioid receptor [13] = molecular target: T3, Mu-type opioid receptor; assay: MOR antagonists, SAR follow-up, image-based (AID 2420); type: functional;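 note: compounds added before stimulation of receptor with agonist DAMGO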
[14] = molecular target: T2, Kappa-type opioid receptor; assay: KOR agonist analogs, imaging readout, SAR follow-up, image-based (AID 2359); type: functional
[15] = molecular target: T4, Delta-type opioid receptor; assay: DOR antagonists, SAR follow-up, image-based (AID 2357); type: functional
[16] = molecular target: T2, Kappa-type opioid receptor; assay: kappa opioid receptor blockers, cell-based, luminescence, beta-arrestin, SAR follow-up (AID 2285); type: functional
[17] = molecular target: T5, Polyadenylate-binding protein 1 (Homo sapiens, UniProt P11940); assay: PABP1 MLLE–PAM2 interaction inhibitors, dose response, miRNA deadenylation inhibitor project, biochemical, fluorescence polarization, Cy5-PAM2 peptide, secondary (AID 602260); type: functional; conditions: read-out: IC50_Mean
[18] = molecular target: T5, Polyadenylate-binding protein 1; assay: PABP1 MLLE–PAM2 binding inhibitor potency, dose response, biochemical, fluorescence polarization, FITC-PAM2 peptide (AID 602259); type: functional; conditions: read-out: IC50_Mean
[19] = HepG2 cell cytotoxicity, dose response, cytotoxicity control for Shn3 inhibitor project, CellTiter-Glo, cherry-picked (AID 624134); type: functional, cell-based
[20] = control 3'UTR Renilla luciferase suppression, dose response, counter-screen for Shn3 inhibitor project, cell-based, Clone20-Shn3RL, cherry-picked (AID 624133); type: functional
[21] = molecular target: Peroxisome proliferator-activated receptor gamma/Nuclear receptor coactivator 1 (Homo sapiens, UniProt P37231); assay: (§1) TR-FRET dose response biochemical High Throughput Screening assay for agonists of the steroid receptor coactivator 1 (SRC-1) recruitment by the peroxisome proliferator-activated receptor gamma (PPAR gamma): non-selective agonists. [Related pubchem assays (depositor defined):AID1300, AID1808, AID504735, AID631]; type: protein assay
[22] = molecular target: Peroxisome proliferator-activated receptor gamma/Nuclear receptor coactivator 3 (Homo sapiens, UniProt P37231); assay: as §1, with “3 (SRC-3)” for “1 (SRC-1)”, “assays: 1301 (Confirmation screen.), 1048 (Primary screen.)]” for “assays (depositor defined):AID1300, AID1808, AID504735, AID631]”; type: functional
[23] = molecular target: Peroxisome proliferator-activated receptor gamma/Nuclear receptor corepressor 2 (Homo sapiens, UniProt P37231+Q9Y618); assay: Counterscreen for NR2E3 inverse agonists: TR-FRET-based biochemical high throughput dose response assay to identify inverse agonists of the interaction between peroxisome proliferator-activated receptor gamma (PPARg) and nuclear receptor co-repressor 2 (NCOR2).; type: functional
[24] = molecular target: Photoreceptor-specific nuclear receptor (Homo sapiens, UniProt Q9Y5X4); assay: NR2E3 inverse agonists, dose response, biochemical, TR-FRET (AID 463256); type: functional
[25] = molecular target: Peroxisome proliferator-activated receptor gamma/Nuclear receptor coactivator 2 (Homo sapiens, UniProt P37231); assay: TR-FRET dose response biochemical High Throughput Screening assay for agonists of the steroid receptor coactivator 2 (SRC-2) recruitment by the peroxisome proliferator-activated receptor gamma (PPAR gamma): non-selective agonists. [Related pubchem assays: 1297, 1032 ]; type: functional
Peroxisome proliferator-activated receptor gamma/Nuclear receptor coactivator 2, sequence (P37231 whole entry): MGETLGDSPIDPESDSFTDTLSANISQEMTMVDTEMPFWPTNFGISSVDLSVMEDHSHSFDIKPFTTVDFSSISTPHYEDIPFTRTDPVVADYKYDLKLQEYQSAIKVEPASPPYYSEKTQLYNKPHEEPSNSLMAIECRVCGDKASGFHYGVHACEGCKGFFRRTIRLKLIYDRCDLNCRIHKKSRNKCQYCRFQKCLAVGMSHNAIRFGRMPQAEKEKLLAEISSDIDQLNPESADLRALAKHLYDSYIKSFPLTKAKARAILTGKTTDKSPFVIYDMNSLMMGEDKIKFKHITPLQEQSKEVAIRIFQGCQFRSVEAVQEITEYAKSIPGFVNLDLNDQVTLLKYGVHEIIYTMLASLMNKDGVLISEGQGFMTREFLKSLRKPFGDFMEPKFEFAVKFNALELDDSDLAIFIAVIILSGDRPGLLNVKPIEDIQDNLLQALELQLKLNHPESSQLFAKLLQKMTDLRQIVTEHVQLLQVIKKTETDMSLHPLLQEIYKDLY
Peroxisome proliferator-activated receptor gamma/Nuclear receptor coactivator 2, sequence (Q15596 whole entry, further chain): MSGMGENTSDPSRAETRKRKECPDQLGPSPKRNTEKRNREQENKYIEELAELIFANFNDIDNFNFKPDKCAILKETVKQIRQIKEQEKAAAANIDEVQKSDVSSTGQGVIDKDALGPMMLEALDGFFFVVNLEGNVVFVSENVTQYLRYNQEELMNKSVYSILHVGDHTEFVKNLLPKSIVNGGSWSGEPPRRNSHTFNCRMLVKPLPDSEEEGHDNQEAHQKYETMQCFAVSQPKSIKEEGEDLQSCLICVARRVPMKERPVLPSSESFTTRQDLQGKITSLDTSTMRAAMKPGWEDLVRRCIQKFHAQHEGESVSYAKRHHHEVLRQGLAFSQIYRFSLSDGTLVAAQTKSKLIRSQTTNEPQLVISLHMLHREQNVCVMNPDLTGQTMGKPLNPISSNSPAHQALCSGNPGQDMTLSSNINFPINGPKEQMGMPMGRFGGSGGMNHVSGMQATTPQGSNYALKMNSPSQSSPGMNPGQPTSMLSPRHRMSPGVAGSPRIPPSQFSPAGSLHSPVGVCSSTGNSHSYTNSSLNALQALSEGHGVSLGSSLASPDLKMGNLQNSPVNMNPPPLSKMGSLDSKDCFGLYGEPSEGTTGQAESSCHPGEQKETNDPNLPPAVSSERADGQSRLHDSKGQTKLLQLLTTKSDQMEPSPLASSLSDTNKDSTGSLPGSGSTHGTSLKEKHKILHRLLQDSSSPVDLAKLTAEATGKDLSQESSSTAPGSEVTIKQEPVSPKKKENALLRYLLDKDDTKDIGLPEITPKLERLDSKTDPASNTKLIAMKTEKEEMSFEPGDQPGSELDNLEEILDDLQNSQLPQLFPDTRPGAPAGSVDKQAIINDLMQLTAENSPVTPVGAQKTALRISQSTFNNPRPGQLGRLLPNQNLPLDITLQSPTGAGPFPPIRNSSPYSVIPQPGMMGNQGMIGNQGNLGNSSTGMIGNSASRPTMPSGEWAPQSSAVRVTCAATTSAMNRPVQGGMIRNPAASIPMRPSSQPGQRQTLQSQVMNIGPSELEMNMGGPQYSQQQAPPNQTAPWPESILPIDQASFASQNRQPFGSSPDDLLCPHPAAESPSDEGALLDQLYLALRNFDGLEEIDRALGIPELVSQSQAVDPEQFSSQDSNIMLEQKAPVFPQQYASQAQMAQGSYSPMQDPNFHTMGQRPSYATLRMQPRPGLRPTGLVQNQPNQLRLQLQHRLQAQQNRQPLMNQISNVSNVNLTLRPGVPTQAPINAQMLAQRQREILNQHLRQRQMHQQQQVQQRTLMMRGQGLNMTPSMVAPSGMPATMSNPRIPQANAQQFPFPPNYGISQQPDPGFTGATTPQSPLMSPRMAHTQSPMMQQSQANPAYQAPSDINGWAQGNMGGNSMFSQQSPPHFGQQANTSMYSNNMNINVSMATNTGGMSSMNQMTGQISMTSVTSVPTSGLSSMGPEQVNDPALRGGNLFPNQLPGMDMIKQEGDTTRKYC

T2 sequence (P41145 whole entry): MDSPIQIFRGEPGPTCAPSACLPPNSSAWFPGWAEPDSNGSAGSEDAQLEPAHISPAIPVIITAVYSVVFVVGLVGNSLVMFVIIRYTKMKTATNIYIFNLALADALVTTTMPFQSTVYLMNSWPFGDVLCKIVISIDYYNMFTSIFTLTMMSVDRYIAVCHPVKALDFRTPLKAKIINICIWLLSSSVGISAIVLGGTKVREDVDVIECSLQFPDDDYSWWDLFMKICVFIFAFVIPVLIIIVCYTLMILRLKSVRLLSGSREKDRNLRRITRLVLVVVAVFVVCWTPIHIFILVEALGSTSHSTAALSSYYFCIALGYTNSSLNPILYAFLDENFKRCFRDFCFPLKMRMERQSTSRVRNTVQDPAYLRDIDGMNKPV
T3 sequence (P35372 whole entry): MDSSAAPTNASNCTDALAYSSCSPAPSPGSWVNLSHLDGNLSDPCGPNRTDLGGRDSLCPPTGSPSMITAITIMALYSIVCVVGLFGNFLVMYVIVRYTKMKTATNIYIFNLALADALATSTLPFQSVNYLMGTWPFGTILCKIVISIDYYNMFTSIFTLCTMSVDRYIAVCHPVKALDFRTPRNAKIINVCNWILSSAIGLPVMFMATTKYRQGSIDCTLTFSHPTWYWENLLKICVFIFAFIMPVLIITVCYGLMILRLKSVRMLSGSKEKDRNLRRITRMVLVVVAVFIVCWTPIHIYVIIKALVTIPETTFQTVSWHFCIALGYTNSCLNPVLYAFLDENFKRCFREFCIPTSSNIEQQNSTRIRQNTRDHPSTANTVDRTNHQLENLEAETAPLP
T4 sequence (P41143 whole entry): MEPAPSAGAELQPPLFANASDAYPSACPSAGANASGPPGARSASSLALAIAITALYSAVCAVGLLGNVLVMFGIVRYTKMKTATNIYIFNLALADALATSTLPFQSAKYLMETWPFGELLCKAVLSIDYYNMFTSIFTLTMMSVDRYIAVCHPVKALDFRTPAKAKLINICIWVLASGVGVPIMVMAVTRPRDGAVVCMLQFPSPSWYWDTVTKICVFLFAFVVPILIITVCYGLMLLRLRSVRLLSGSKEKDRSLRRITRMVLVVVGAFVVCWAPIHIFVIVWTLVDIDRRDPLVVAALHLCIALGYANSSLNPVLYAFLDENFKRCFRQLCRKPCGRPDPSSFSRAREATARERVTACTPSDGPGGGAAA
T5 sequence (P11940 whole entry): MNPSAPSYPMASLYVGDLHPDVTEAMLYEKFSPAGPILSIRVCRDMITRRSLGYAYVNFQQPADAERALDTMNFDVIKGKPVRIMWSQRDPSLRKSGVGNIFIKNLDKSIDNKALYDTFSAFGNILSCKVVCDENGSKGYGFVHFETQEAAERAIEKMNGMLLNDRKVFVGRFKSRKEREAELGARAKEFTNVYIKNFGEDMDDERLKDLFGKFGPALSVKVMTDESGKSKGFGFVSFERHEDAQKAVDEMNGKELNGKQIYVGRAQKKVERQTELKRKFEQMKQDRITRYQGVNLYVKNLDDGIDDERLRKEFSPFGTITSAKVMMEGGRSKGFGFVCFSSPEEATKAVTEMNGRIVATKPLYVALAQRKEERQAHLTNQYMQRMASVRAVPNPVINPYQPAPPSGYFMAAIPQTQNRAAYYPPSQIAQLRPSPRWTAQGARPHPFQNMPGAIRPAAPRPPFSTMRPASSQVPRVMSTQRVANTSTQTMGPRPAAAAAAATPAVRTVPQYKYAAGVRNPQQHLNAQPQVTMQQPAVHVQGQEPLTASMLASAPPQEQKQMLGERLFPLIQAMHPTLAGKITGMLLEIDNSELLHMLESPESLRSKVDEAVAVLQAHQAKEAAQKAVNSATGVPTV
DNA dC->dU-editing enzyme APOBEC-3A, sequence (P31941 whole entry): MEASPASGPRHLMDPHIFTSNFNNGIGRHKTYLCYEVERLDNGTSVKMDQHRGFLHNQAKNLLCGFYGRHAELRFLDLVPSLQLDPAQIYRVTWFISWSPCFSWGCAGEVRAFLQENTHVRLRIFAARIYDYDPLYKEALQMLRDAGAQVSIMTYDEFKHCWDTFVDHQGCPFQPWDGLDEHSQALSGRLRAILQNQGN
Glucose-6-phosphate 1-dehydrogenase, sequence (P11413 whole entry): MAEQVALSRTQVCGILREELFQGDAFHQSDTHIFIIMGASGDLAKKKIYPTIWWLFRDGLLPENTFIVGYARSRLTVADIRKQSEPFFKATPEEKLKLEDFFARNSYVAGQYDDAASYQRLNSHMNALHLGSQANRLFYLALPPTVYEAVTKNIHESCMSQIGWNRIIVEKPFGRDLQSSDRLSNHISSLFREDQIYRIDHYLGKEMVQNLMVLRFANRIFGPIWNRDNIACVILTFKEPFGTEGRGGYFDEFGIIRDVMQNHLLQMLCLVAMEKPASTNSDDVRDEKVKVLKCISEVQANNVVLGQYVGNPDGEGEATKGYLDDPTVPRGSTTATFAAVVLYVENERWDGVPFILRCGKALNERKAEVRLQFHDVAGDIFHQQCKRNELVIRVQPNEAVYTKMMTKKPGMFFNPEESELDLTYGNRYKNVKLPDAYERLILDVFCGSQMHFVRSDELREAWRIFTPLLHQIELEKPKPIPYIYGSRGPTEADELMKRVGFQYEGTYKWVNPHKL
DNA dC->dU-editing enzyme APOBEC-3G, sequence (Q9HC16 whole entry): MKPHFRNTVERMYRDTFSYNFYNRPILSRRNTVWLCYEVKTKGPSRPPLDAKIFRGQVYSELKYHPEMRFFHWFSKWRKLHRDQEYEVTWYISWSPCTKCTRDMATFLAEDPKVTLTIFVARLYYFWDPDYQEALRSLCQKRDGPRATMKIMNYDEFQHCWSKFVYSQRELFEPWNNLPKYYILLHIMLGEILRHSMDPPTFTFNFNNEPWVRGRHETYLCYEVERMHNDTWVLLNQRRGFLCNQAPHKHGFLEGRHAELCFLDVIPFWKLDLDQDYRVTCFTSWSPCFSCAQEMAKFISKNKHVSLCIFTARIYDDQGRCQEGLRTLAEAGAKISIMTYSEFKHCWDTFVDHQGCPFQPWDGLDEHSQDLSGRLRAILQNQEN

For `O=S(=O)(Nc1ccccc1F)c1cccc(NC(=S)NCCN2CCOCC2)c1`, the IC50 [1] was > 100 µM (inactive), the IC50 [2] was > 80 µM (inactive) and the IC50 [3] was 7.38 µM (active). The AC50 [4] was 8.95 µM (active).

With `O=C(NC(NC(=S)Nc1c(Cl)cc(Cl)cc1Cl)C(Cl)(Cl)Cl)OCc1ccccc1` (stereo unspecified) the EC50 [5] was 0.562 µM (active), the EC50 (Streptokinase A) was 1.83 µM (active) and the EC50 [6] was 1.65 µM (active). For the same molecule, the IC50 [7] was 1.88 µM (active), the EC50 [8] was > 60 µM (not active) and the EC50 (Beta-galactosidase) was > 31.5 µM (inactive). The IC50 [9] was 0.63 µM, the EC50 (Streptococcus) was 39.3 µM (inconclusive) and the EC50 (Mu-type opioid receptor [10]) was > 32 µM (inactive). The EC50 [11] was > 32 µM (inactive), the IC50 [12] was 0.517 µM (active) and the IC50 (Mu-type opioid receptor [13]) was > 32 µM (inactive). The EC50 [14] was > 32 µM (inactive), the IC50 [15] was > 32 µM (inactive) and the IC50 [16] was 0.846 µM (active). For the same molecule, the IC50 [17] was > 66 µM (inactive), the IC50 [18] was > 66 µM (inactive) and the AC50 [19] was 18.5 µM (active). For the same molecule, the AC50 [20] was 2.04 µM (active).

With `COc1ccc(-c2cn3c(C)c(C(=O)Nc4cc(NC(C)=O)ccc4OC)sc3n2)cc1` the EC50 [21] was 12.9 µM (inactive), the EC50 [22] was > 79.4 µM (not active) and the IC50 [23] was 18 µM (not active). For the same molecule, the IC50 [24] was 23.2 µM (not active) and the EC50 [25] was 15 µM (not active).

For `Cn1c(=O)cc(SCC(=O)NCc2ccco2)c2ccccc21`, the EC50 [21] was > 79.4 µM (inactive), the EC50 [22] was > 79.4 µM (not active) and the EC50 [25] was > 79.4 µM (not active).
